Reference: EPA's CvTdb concentration-time database (doi:10.5012/bkcs.2003.24.5.559)

System: rat
Experiment: concentration in urine after dosing
Details: dosed: benzo(a)pyrene, 20 mg/kg, iv, male, Sprague-Dawley

Oc1ccc2ccc3c4ccccc4cc4ccc1c2c43 [3-hydroxybenzo(a)pyrene]
Details | concentration in urine [ng/mL]
4.071 h | 0.145
8.015 h | 0.0241
23.16 h | 5.11
28.88 h | 6.99
35.11 h | 8.63
47.07 h | 6.84
52.93 h | 6.1
59.03 h | 2.19
76.84 h | 0.0482
95.04 h | 0.289

Oc1ccc2ccc3cc4ccccc4c4ccc1c2c34 [1-hydroxybenzo(a)pyrene]
Details | concentration in urine [ng/mL]
3.699 h | 0.371
7.645 h | 0.0295
10.85 h | 0.0167
22.69 h | 1.58
28.98 h | 3.02
34.9 h | 5.24
46.73 h | 2.31
52.9 h | 2.18
58.94 h | 1.1
77.07 h | 0.514
94.7 h | 0.0397

c1ccc2c(c1)cc1ccc3cccc4ccc2c1c34 [benzo(a)pyrene]
Details | concentration in urine [ng/mL]
4.13 h | 3.27
7.866 h | 0.98
11.07 h | 0.98
23.06 h | 10.1
29.09 h | 126
35.2 h | 1.96
47.07 h | 0.98
52.8 h | 0.654
58.8 h | 0.654
76.8 h | 0.654
94.93 h | 0.654
